The structures appear in SMILES notation. Like-named read-outs stand apart in the source and are kept apart here.

These results are taken from paper PMC10373627, “The Stability of Synthetic Cathinones and the Study of Potential Intake Biomarkers in the Biological Material from a Case of 3-CMC Poisoning” (Journal of Analytical Toxicology, 2023).

The nature of series [1]: Stability study in the authentic autopsy urine sample (HPLC-ESI-MS-MS / HPLC-ESI-MS). Format: in vitro ADME, human. Here is the method: (§1) Due to the positive result of the identification analysis of the fluid from the Venflon, the biological material (blood and urine) was properly preserved on the same day. In the case of the urine sample, the pH was first measured using a universal indicator paper (pH = 6.0). The blood sample was preserved in a tube with sodium fluoride (NaF) and potassium oxalate (KOx). The biological material was divided into three parts, each with a volume of 1 mL. The first part was stored at 4°C. The second part was acidified with 1 M HCl: 100 µL of HCl was added to 1 mL of the blood sample to obtain pH <7, and 50 µL of HCl was added to 1 mL of the urine sample to obtain pH = 4.2. The third part of the blood and urine samples was stored at −30°C.
The 200 µL of blank, calibration and quality control (QC) blood samples and the person’s blood and urine samples were enriched with the addition of methanolic IS 4-CEC-d5. For the blood sample, the final IS concentration was 100 ng/mL, and for the urine sample, it was 1,000 ng/mL. A homogenizing element in the form of a 5-mm-diameter stainless steel bead was added to the Eppendorf Tubes containing the samples. The samples were then deproteinized with frozen acetonitrile (400 µL). The samples were then centrifuged, and the supernatant was evaporated in a stream of nitrogen in a 40°C sand bath. The dry residue was dissolved in 100 µL of a mixture of phase A and B solution in a volume ratio of 60:40 (v/v). Mobile phase A is a mixture of 2 mM ammonium formate and 0.2% formic acid solution in water (v/v), and phase B is a mixture of 2 mM ammonium formate and 0.2% formic acid solution in acetonitrile (v/v). […]
A 6410 triple-quadrupole mass spectrometer (Agilent) with an electrospray ionization (ESI) source, operated under a positive mode, was used. […] The fragmentation parameters of the analyzed compounds are listed in Table I. For the analysis of the selected potential biomarker, dihydro-3-CMC, the total ion current scanning mode was used in the m/z range of 50–650 amu. […]

Series [2] can be described thus: Stability study in the authentic autopsy blood sample (HPLC-ESI-MS-MS / HPLC-ESI-MS). In kind it is in vitro ADME, human. Here is the method:
as §1
The 200 µL of blank, calibration and quality control (QC) blood samples and the person’s blood and urine samples were enriched with the addition of methanolic IS 4-CEC-d5. For the blood sample, the final IS concentration was 100 ng/mL, and for the urine sample, it was 1,000 ng/mL. A homogenizing element in the form of a 5-mm-diameter stainless steel bead was added to the Eppendorf Tubes containing the samples. The samples were then deproteinized with frozen acetonitrile (400 µL). The samples were then centrifuged, and the supernatant was evaporated in a stream of nitrogen in a 40°C sand bath. The dry residue was dissolved in 100 µL of a mixture of phase A and B solution in a volume ratio of 60:40 (v/v). Mobile phase A is a mixture of 2 mM ammonium formate and 0.2% formic acid solution in water (v/v), and phase B is a mixture of 2 mM ammonium formate and 0.2% formic acid solution in acetonitrile (v/v).
An Agilent 1200 liquid chromatograph (Agilent) equipped with a binary pump (G1312 A) and an autosampler (G1329 A) was used. The chromatographic separation was performed with a Poroshell 120 EC-C18 column (3.0 × 100 mm, particle size 2.7 μm, Agilent). The column was thermostated at 40°C.
The flow of the mobile phases through the chromatographic column occurred at a programmed gradient of mobile phase composition and flow rate (initially, 95% of phase A and 5% of phase B at a flow rate of 0.5 mL/min; then, the proportion of phases was increased linearly to 90% of phase B at a flow rate of 1.0 mL/min at 10 minutes, and the condition was maintained for 2 min). Subsequently, the proportion of phases was increased linearly to 95% of phase B at a flow rate of 1.0 mL/min at 15 minutes. The volume of the samples injected into the chromatographic column was 15 μL.
A 6410 triple-quadrupole mass spectrometer (Agilent) with an electrospray ionization (ESI) source, operated under a positive mode, was used. The operational parameters of the ESI source were as follows: vaporizing temperature 350 °C, pressure of the nebulizing gas 40 psi, flow of the drying gas 9 L/min and capillary potential 3.5 kV. The multiple reaction monitoring (MRM) was employed. The fragmentation parameters of the analyzed compounds are listed in Table I. For the analysis of the selected potential biomarker, dihydro-3-CMC, the total ion current scanning mode was used in the m/z range of 50–650 amu.
While planning the experiment, the limitation was the amount of the biological material secured during the autopsy, as it came from an authentic case. The reference point (day 1) was the extraction of the biological material stored at 4°C for 24 hours using the procedure described earlier. The deproteination was performed the day after the autopsy was conducted, and the biological material was preserved. Subsequently, all the adequately preserved biological material was examined similarly after 2, 4 and 12 months. These intervals were chosen on the basis of the time that elapses between the autopsy and the intervals on which toxicological examinations are most often ordered to the Toxicology Laboratory of the Department of Forensic Medicine in Krakow by the Prosecutor’s Office. […]

Series [3] is described as follows: GC-MS identification of 3-CMC and its metabolites in the person's urine sample after derivatization. Format: in vivo, human. The following applies: fatal poisoning case; for presence in urine sample: GC-MS after acetylation; for amount present in urine sample: GC-MS after trimethylsilylation. Here is the method: The fluid from the Venflon was acetylated and then analyzed by gas chromatography coupled to mass spectrometry (GC--MS), as described by Synowiec et al. ([8]). Screening analysis was performed using a library developed by Pfleger, Maurer and Weber ([9]), which contains a broad group of compounds, including acetyl or trimethylsilyl derivatives, as well as the authors’ library of SCs ([8]). The analysis was conducted on the day of the autopsy, which was 2 days after the body was discovered.
Following preliminary analytical results indicating the presence of chloromethcathinone (CMC), the liquid from the Venflon further underwent a trimethylsilylation process ([8]) to distinguish the constitutional isomer of CMC.
The same procedure was carried out in the urine sample after SPE, according to the methods described in the authors’ earlier works ([10], [11]).

On the set-up of series [4]: method as in PMID 30557825. Particulars: cited from earlier work.
Details of series [5]: method as in PMID 30557825. The following applies: cited from earlier work. The source holds these as a separate data set.
Details of series [6]: method as in PMID 30636991. Particulars: cited from earlier work.
On the set-up of series [7]: method as in PMID 32407550. The following applies: cited from earlier work.
Setting [8] is: any given storage conditions (4°C, 4°C + HCl, −30°C), 12 months.

In the case of `CNC(C)C(=O)c1cccc(Cl)c1` (centres unmarked) [3-CMC, 1-(3-chlorophenyl)-2-(methylamino)propan-1-one], the “stability in urine sample” value in series [1] (after acidification and freezing, investigated period 12 months) is “stable throughout the investigated time period”. In addition, the “detection in urine sample” value in series [1] (urine pH ∼6, 4°C, after 2 months) is “impossible to detect”. Besides, the “decomposition on storage of the biological material” value in series [2] (24 hours of storage at 4°C) is recorded as “significant decomposition”. Further, in series [2] (acidified blood sample, ∼4°C), the “time for which the parent substance could be detected in blood sample” value was determined as 4 months. Besides, the “time after which detection in blood sample was still possible” value in series [2] (blood stored at −30°C) is reported as at least 12 months. Further, the “detection in blood sample” value in series [2] (blood stored at ∼4°C, after 2 months) was “no longer detected”. For the same compound, the “3-CMC concentration in blood sample” value in series [2] (storage 4°C + HCl, 2 months since autopsy) was determined as 580 ng/mL; in series [2] (storage 4°C + HCl, 4 months since autopsy), 150 ng/mL; in series [2] (storage 4°C + HCl, 12 months since autopsy), 0 ng/mL; in series [2] (storage 4°C, 2 months since autopsy), 0 ng/mL; in series [2] (storage 4°C, 4 months since autopsy), 0 ng/mL; in series [2] (storage 4°C, 12 months since autopsy), 0 ng/mL. Further, the “3-CMC concentration in blood sample” value was 880 ng/mL in series [2] (storage 4°C, 1 day since autopsy (reference point, 24 hours at 4°C)); 2,200 ng/mL in series [2] (storage −30°C, 2 months since autopsy); 2,500 ng/mL in series [2] (storage −30°C, 4 months since autopsy); 1,100 ng/mL in series [2] (storage −30°C, 12 months since autopsy); > 2,000 ng/mL in series [2] (stored at −30°C (frozen immediately)). Further, the “presence in urine sample” value in series [3] was “presence”. Also, in series [3], the “amount present in urine sample” value was “trace amounts”.

For `CNC(C)C(O)c1cccc(Cl)c1` (centres unmarked) [dihydro-3-CMC], in series [1] (setting [8]), the “stability in urine sample” value is recorded as “high stability”. The “stability in blood sample” value in series [2] (setting [8]) is “high stability”. Moreover, in series [3], the “presence in urine sample” value is recorded as “mainly” and the “amount present in urine sample” value was “mainly present”.

For `CC(=O)NC(C)C(=O)c1cccc(Cl)c1` (centres unmarked) [N-desmethyl-3-CMC-AC], the “presence in urine sample” value in series [3] is “presence”.

Regarding `CNC(C)C(=O)c1ccc(Cl)cc1` (centres unmarked) [4-CMC, 4-chloromethcathinone], the “estimated time for complete degradation in blood” value was 22 days in series [4] (room temperature); about 4 months in series [4] (stored at 5°C (refrigerated), blank blood enriched with 4-CMC); 11.6 months in series [4] (stored at −26°C). In series [4] (stored at 5°C), the “half-life in blood sample” value was 24 h. Besides, the “estimated time for complete degradation in urine” value in series [5] (5°C) was 4.4 months; in series [5] (24°C) it was 24 days; in series [5] (−26°C), over 3 years. Further, the “half-life in urine sample” value in series [5] (urine pH = 5) is recorded as about 2.5 months. Moreover, the “decrease in concentration in serum sample” value in series [6] (3 days of storage at 4°C, compared to original extraction) is given as 65%. In addition, the “concentration in serum sample” value in series [6] (113 days (∼3.7 months) after the original extraction) is on record as “below the LOQ”; in series [6] (day 0) it was 11.5 ng/mL; in series [6] (day 3, storage at 4°C) it was 4.0 ng/mL. In addition, the “decrease in concentration in blood sample” value in series [7] (3 days at 23°C) is 54%; in series [7] (30 days of storage at 4°C), 63%. Further, the “total decay time in blood sample” value in series [7] (refrigerated storage, blood from an authentic case) was 90 days. Also, the “stability in blood sample” value in series [7] (stored at −15°C, entire experiment (90 days)) is on record as “stable”.

For `CC(=O)NC(C)C(OC(C)=O)c1cccc(Cl)c1` (centres unmarked) [N-desmethyl-dihydro-3-CMC-2AC], the “presence in urine sample” value in series [3] was “presence”.
